# Test results as given in PMC10850145, “Hormonal steroids induce multidrug resistance and stress response genes in Neisseria gonorrhoeae by binding to MtrR” (Nature Communications, 2024).
# Several values for one entry are separate records, joined by “and”; a condition that tells them apart may be missing. Equal entries are not always repeated. Where two headings read alike, the source gives them in different places.
# Tests used:
# rpoH-lacZ expression = format: cell-based, Neisseria gonorrhoeae; details: for Miller units / β-galactosidase activity (Miller units): rpoH-lacZ, single replicate; for Plate-6 (Testosterone) Miller units, Mean: lower four plate rows
# gonococcal strain FA19 = test: MIC of steroidal hormones on GC agar, strain FA19; format: cell-based; details: Neisseria gonorrhoeae
# Experimental: To determine the minimal inhibitory concentrations (MICs) by the steroidal hormones and their effect on antimicrobial susceptibility, 5 x 10^5 CFU and 1:5 serial dilutions of gonococcal strains were spotted on GC agar plates containing different concentrations of antibiotics and/or hormones as indicated. Antimicrobial susceptibility was assessed after 24 h incubation.
# Table S1. Steroidal hormones are substrates of the MtrCDE efflux pump
# Progesterone Testosterone
# *Minimal inhibition concentration is defined by the lowest concentration at which visible growth is […]
# MtrR W136A = molecular target: T1, MtrR W136A (Neisseria gonorrhoeae, UniProt P39897, W136A); test: biochemical; format: binding
# T1 construct: Hexa-histidine tag with TEV protease cleavage site (N, cleaved yes); made in house; host or cells: E. coli Rosetta Gami B(DE3) pLysS
# T1 sequence (P39897 whole entry W136A): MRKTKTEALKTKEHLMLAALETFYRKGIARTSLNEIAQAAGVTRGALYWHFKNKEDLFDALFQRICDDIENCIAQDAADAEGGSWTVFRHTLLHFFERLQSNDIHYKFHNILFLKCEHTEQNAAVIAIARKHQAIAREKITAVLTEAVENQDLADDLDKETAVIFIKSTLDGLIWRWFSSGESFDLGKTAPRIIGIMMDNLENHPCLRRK
# [1] = ΔmtrR + mtrR D171A in trans, 6.25 µM hormone
# [2] = ΔmtrR + mtrR D171A in trans, 12.5 µM hormone
# [3] = ΔmtrR + mtrR D171A in trans, 25 µM hormone
# [4] = ΔmtrR + mtrR D171A in trans, 50 µM hormone
# [5] = ΔmtrR + mtrR WT in trans, 25 µM hormone
compound,measurement,setting,value
"C[C@]12CC[C@H]3[C@@H](CCC4=CC(=O)CC[C@@]43C)[C@@H]1CC[C@@H]2O [Testosterone, testosterone]",Plate-6 (Testosterone) Miller units,"rpoH-lacZ expression; 50 µM, single wells, right (rpoH) half of sheet",65 Miller units and 49 Miller units and 56 Miller units and 58 Miller units
same,induction of rpoH expression,"rpoH-lacZ expression; complemented (MtrR+) strains, increasing hormone",could be induced
same,induction of rpoH expression,rpoH-lacZ expression; loss of MtrR or MtrR-D171A strain,abrogated
same,Miller units,rpoH-lacZ expression; [1],55 Miller units and 65 Miller units
same,β-galactosidase activity (Miller units),rpoH-lacZ expression; [1],55 Miller units and 57 Miller units and 80 Miller units
same,Miller units,rpoH-lacZ expression; [2],63 Miller units
same,β-galactosidase activity (Miller units),rpoH-lacZ expression; [2],58 Miller units and 54 Miller units and 74 Miller units
same,Miller units,rpoH-lacZ expression; [3],68 Miller units
same,β-galactosidase activity (Miller units),rpoH-lacZ expression; [3],64 Miller units and 60 Miller units and 67 Miller units
same,Miller units,rpoH-lacZ expression; [4],56 Miller units
same,β-galactosidase activity (Miller units),rpoH-lacZ expression; [4],65 Miller units and 49 Miller units and 58 Miller units
same,β-galactosidase activity (Miller units),"rpoH-lacZ expression; ΔmtrR + mtrR WT in trans, 6.25 µM hormone",39 Miller units and 46 Miller units and 47 Miller units
same,β-galactosidase activity (Miller units),"rpoH-lacZ expression; ΔmtrR + mtrR WT in trans, 12.5 µM hormone",51 Miller units and 50 Miller units and 56 Miller units and 52 Miller units
same,Miller units,rpoH-lacZ expression; [5],55 Miller units
same,β-galactosidase activity (Miller units),rpoH-lacZ expression; [5],68 Miller units and 55 Miller units and 57 Miller units and 70 Miller units
same,β-galactosidase activity (Miller units),"rpoH-lacZ expression; ΔmtrR + mtrR WT in trans, 50 µM hormone",76 Miller units and 71 Miller units and 62 Miller units and 63 Miller units
same,β-galactosidase activity (Miller units),"rpoH-lacZ expression; ΔmtrR strain, 6.25 µM hormone",119 Miller units and 89 Miller units and 76 Miller units
same,β-galactosidase activity (Miller units),"rpoH-lacZ expression; ΔmtrR strain, 12.5 µM hormone",126 Miller units and 100 Miller units and 81 Miller units
same,β-galactosidase activity (Miller units),"rpoH-lacZ expression; ΔmtrR strain, 25 µM hormone",155 Miller units and 93 Miller units and 79 Miller units
same,β-galactosidase activity (Miller units),"rpoH-lacZ expression; ΔmtrR strain, 50 µM hormone",151 Miller units and 101 Miller units and 93 Miller units
same,Miller units,"rpoH-lacZ expression; ΔmtrR, 6.25 µM hormone",100 Miller units
same,Miller units,"rpoH-lacZ expression; ΔmtrR, 12.5 µM hormone",101 Miller units
same,Miller units,"rpoH-lacZ expression; ΔmtrR, 25 µM hormone",122 Miller units
same,Miller units,"rpoH-lacZ expression; ΔmtrR, 50 µM hormone",132 Miller units
same,"β-galactosidase activity, rpoH-lacZ, Mean","rpoH-lacZ expression; strain WT (FA19/pLES94-rpoH), hormone 6.25 µM",69 Miller units
same,"β-galactosidase activity, rpoH-lacZ, Mean","rpoH-lacZ expression; strain WT (FA19/pLES94-rpoH), hormone 12.5 µM",81 Miller units
same,"β-galactosidase activity, rpoH-lacZ, Mean","rpoH-lacZ expression; strain WT (FA19/pLES94-rpoH), hormone 25 µM",98 Miller units
same,"β-galactosidase activity, rpoH-lacZ, Mean","rpoH-lacZ expression; strain WT (FA19/pLES94-rpoH), hormone 50 µM",117 Miller units
same,activation of rpoH,rpoH-lacZ expression; strain producing MtrR R176E,significantly less activation
same,"β-galactosidase activity, rpoH-lacZ, Mean","rpoH-lacZ expression; strain ΔmtrR (FA19 ∆mtrR/pLES94-rpoH), hormone 6.25 µM",96 Miller units
same,"β-galactosidase activity, rpoH-lacZ, Mean","rpoH-lacZ expression; strain ΔmtrR (FA19 ∆mtrR/pLES94-rpoH), hormone 12.5 µM",102 Miller units
same,"β-galactosidase activity, rpoH-lacZ, Mean","rpoH-lacZ expression; strain ΔmtrR (FA19 ∆mtrR/pLES94-rpoH), hormone 25 µM",112 Miller units
same,"β-galactosidase activity, rpoH-lacZ, Mean","rpoH-lacZ expression; strain ΔmtrR (FA19 ∆mtrR/pLES94-rpoH), hormone 50 µM",119 Miller units
same,"β-galactosidase activity, rpoH-lacZ, Mean","rpoH-lacZ expression; strain ΔmtrR + mtrR D171A (pGCC3-mtrR D171A), hormone 6.25 µM",64 Miller units
same,"β-galactosidase activity, rpoH-lacZ, Mean","rpoH-lacZ expression; strain ΔmtrR + mtrR D171A (pGCC3-mtrR D171A), hormone 12.5 µM",62 Miller units
same,"β-galactosidase activity, rpoH-lacZ, Mean","rpoH-lacZ expression; strain ΔmtrR + mtrR D171A (pGCC3-mtrR D171A), hormone 25 µM",65 Miller units
same,"β-galactosidase activity, rpoH-lacZ, Mean","rpoH-lacZ expression; strain ΔmtrR + mtrR D171A (pGCC3-mtrR D171A), hormone 50 µM",57 Miller units
same,"β-galactosidase activity, rpoH-lacZ, Mean","rpoH-lacZ expression; strain ΔmtrR + mtrR WT (pGCC3-mtrR), hormone 6.25 µM",43 Miller units
same,"β-galactosidase activity, rpoH-lacZ, Mean","rpoH-lacZ expression; strain ΔmtrR + mtrR WT (pGCC3-mtrR), hormone 12.5 µM",52 Miller units
same,"β-galactosidase activity, rpoH-lacZ, Mean","rpoH-lacZ expression; strain ΔmtrR + mtrR WT (pGCC3-mtrR), hormone 25 µM",63 Miller units
same,"β-galactosidase activity, rpoH-lacZ, Mean","rpoH-lacZ expression; strain ΔmtrR + mtrR WT (pGCC3-mtrR), hormone 50 µM",68 Miller units
same,"Plate-6 (Testosterone) Miller units, Mean","rpoH-lacZ expression; testosterone 6.25 µM, plate column 3",43 Miller units
same,"Plate-6 (Testosterone) Miller units, Mean","rpoH-lacZ expression; testosterone 6.25 µM, plate column 9 (second strain set, columns 7-12)",64 Miller units
same,"Plate-6 (Testosterone) Miller units, Mean","rpoH-lacZ expression; testosterone 12.5 µM, plate column 4",52 Miller units
same,"Plate-6 (Testosterone) Miller units, Mean","rpoH-lacZ expression; testosterone 12.5 µM, plate column 10 (second strain set, columns 7-12)",62 Miller units
same,"Plate-6 (Testosterone) Miller units, Mean","rpoH-lacZ expression; testosterone 25 µM, plate column 5",63 Miller units
same,"Plate-6 (Testosterone) Miller units, Mean","rpoH-lacZ expression; testosterone 25 µM, plate column 11 (second strain set, columns 7-12)",65 Miller units
same,"Plate-6 (Testosterone) Miller units, Mean","rpoH-lacZ expression; testosterone 50 µM, plate column 6",68 Miller units
same,"Plate-6 (Testosterone) Miller units, Mean","rpoH-lacZ expression; testosterone 50 µM, plate column 12 (second strain set, columns 7-12)",57 Miller units
same,MIC,gonococcal strain FA19; FA19,160 µg/mL
same,MIC,"gonococcal strain FA19; FA19, 24 h",555 µM
same,Kd,MtrR W136A,5.79 ± 1.4 µM
